Data on one compound can be found in patent publication EP1733731A1, “New uses of Glycerol derivatives in particular in cosmetics” (AGRO INDUSTRIE RECHERCHES ET DEVELOPPEMENTS (A.R.D.), priority 2005, dated 2006).

This experiment addresses T1, MMP-1 (Homo sapiens, UniProt P03956).
T1 construct: La proMMP-1 recombinante (75 ng/mL) est activée par l'APMA
T1 sequence (P03956 100-469): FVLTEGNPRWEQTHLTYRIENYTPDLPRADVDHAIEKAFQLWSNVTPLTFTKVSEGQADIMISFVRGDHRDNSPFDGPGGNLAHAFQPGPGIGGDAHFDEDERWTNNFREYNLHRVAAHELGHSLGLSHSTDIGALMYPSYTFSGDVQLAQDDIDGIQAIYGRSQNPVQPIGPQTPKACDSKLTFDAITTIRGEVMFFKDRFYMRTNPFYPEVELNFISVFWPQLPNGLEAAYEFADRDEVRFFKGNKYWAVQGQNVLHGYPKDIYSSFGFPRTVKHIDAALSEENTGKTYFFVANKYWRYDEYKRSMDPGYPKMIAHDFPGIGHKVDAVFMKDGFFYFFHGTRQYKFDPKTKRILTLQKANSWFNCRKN
Kind of experiment: MMP-1 activity on fluorescent synthetic substrate (FRET). Format: biochemical. The text has this:
La mesure de l'activité enzymatique des MMPs est basée sur le principe du transfert d'énergie par résonance, RET ou transfert d'énergie de fluorescence par résonance, FRET. Le substrat est constitué d'un oligopeptide comportant un groupement fluorescent (F), donneur d'énergie et un groupement éteignant (Q, pour quenching), accepteur d'énergie. Après hydrolyse, le groupement éteignant est libéré, permettant de mesurer l'augmentation de fluorescence.
De nombreux couples fluorescent/éteignant ont été développés pour la mesure de l'activité enzymatique des MMPs comme le couple 7-méthoxycoumarine-4-acétyl (Mca)/dinitrophenyl-diaminopropionyl (Dnp).
Après activation, la MMP-1 est pré-incubée à +20°C pendant 10 minutes en absence ou en présence d'effecteurs dans un tampon Tris-HCl 50 mM, NaCl 150 mM, CaCl2 5 mM pH 7,5 en plaque 96 puits noire dont les sites de liaisons non-spécifiques ont été bloqués à l'aide d'une solution de SAB à 0,1% (p/v) dans le même tampon. La réaction est initiée par addition de 10 µL de substrat à la concentration finale de 2 µM dans un volume réactionnel final de 200 µL. Les variations de fluorescence (λ excitation : 360 nm, λ émission : 465 nm) au cours du temps sont suivies à l'aide d'un spectrofluorimètre lecteur de plaque HTS 7000+ à +20°C. La courbe représentant la fluorescence (en RFU) en fonction du temps (en minutes) est tracée.
Les intensités de fluorescence obtenues permettent d'estimer là vitesse initiale de l'enzyme en absence d'effecteur (V0) et en présence d'inhibiteur (Vi). […]
La proMMP-1 recombinante (75 ng/mL) est activée par l'APMA (Acide Phényl Mercurique Acétate). […] Le clivage de ce substrat est estimé par mesure de la fluorescence libérée (λexc = 360 nm; λem = 465 nm) à l'aide d'un spectrofluorimètre lecteur de plaques de type Perkin Elmer HTS 7000 Plus. Les intensités de fluorescence obtenues permettent d'estimer la vitesse initiale de l'enzyme en l'absence d'effecteur (Vo) et en présence d'inhibiteur (Vi). […]

SMILES strings stand for the structures.

For orientation: inhibition means the share of the control response that was lost under treatment.

With `CCCCC/C=C\C/C=C\CCCCCCCCOC[C@H](CO[C@@H]1O[C@H](COC(=O)CCCCCCCCCCCCCCC)[C@H](O)[C@H](O)[C@H]1O)OCCCCCCCC/C=C\C/C=C\CCCCC` [ED23-11, 1,2-di-O-linoléyl-3-O-[6'-O-palmitoyl-β-D-galactopyranosyl]-sn-glycérol], under “25 µg/mL, read-out: Inhibition de MMP-1 (%)”, the inhibition at 25 µg/mL is 42 ± 0.87%. Further, the “Action sur l'activité de la MMP-1 (Vi/V0) à isoconcentration” value (at isoconcentration) worked out at 168. In addition, the “Augmentation d'activité” value (inhibition of type I collagenase, increase from one fractionation step to the next) is listed as 2,72.
